The values that follow are results of earlier work, collected in US20060150828A1, “Dried infant cereal compositions” (Beech-Nut Nutrition Corporation, priority 2005, published 2006).

The conditions of this data set: storage at 37° C., precooked whole wheat flour containing the iron salt.

Take ferrous gluconate: the “pentane formation (fat oxidation)” value is given as “rapidly generated pentane”.

Turning to ferrous sulfate, the “pentane formation (fat oxidation)” value is recorded as “rapidly generated pentane”.
